Experimental data: PubChem BioAssay (NCI)
Values joined by “and” are separate entries in the source; they are usually repeats but may differ in a detail not shown here. Equal entries are not always repeated.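 96-well plates; 48 h exposure; 5 concentrations. Endpoints by linear interpolation between flanking doses. Not reached: highest tested concentration assigned. GI50 marks 50% less growth. TGI: concentration producing complete growth inhibition.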

Columns and labels:
Assay in all cases: inhibition of tumour cell growth, NCI panel, 48 h
ACHN renal = test system: ACHN renal
HL-60(TB) leukemia = test system: HL-60(TB) leukemia
HOP-62 NSCLC = test system: HOP-62 NSCLC
K-562 leukemia = test system: K-562 leukemia
NCI-H460 lung = test system: NCI-H460 lung
RPMI-8226 leukemia = test system: RPMI-8226 leukemia
SF-539 CNS = test system: SF-539 CNS
SW-620 colon = test system: SW-620 colon
TK-10 renal = test system: TK-10 renal
MALME-3M melanoma = test system: MALME-3M melanoma

Compound	TGI (ACHN renal)	TGI (HL-60(TB) leukemia)	TGI (HOP-62 NSCLC)	TGI (K-562 leukemia)	TGI (NCI-H460 lung)	TGI (RPMI-8226 leukemia)	TGI (SF-539 CNS)	TGI (SW-620 colon)	TGI (TK-10 renal)	TGI (MALME-3M melanoma)	GI50 (ACHN renal)	GI50 (HL-60(TB) leukemia)	GI50 (MALME-3M melanoma)	GI50 (NCI-H460 lung)	GI50 (RPMI-8226 leukemia)	GI50 (SF-539 CNS)	GI50 (SW-620 colon)	GI50 (TK-10 renal)	GI50 (K-562 leukemia)
c1ccc(-n2cnnc2-c2nsc3ccccc23)cc1	> 100 µM	> 100 µM	> 100 µM	> 100 µM	> 100 µM	> 100 µM	> 100 µM	> 100 µM	> 100 µM										
C=C1C(=O)OC2/C=C(\C)C(=O)CC3OC(C)(C)OC3(C)CC(OC(=O)/C(C)=C/C)C12 (stereo not drawn)	16.6 µM	> 23.4 µM	> 100 µM	> 60.9 µM	46.2 µM	> 100 µM	49.4 µM	98.7 µM	27.9 µM	28 µM									
CCN(CC)C(=S)SC(=S)N(CC)CC	> 100 µM	> 100 µM	> 100 µM	> 100 µM	> 100 µM	57.4 µM	> 100 µM	> 100 µM	> 100 µM	> 58.4 µM									
Cc1ccc(P(c2ccc(C)cc2)c2ccc(C)cc2)cc1	> 100 µM	> 100 µM		> 100 µM	36.5 µM	34.6 µM	37.7 µM	> 100 µM	> 100 µM	42.4 µM									
COc1cc(C(C)(C)C)cc(OC)c1C(O)(c1c(OC)cc(C(C)(C)C)cc1OC)c1c(OC)cc(C(C)(C)C)cc1OC	0.987 µM	0.394 µM			0.853 µM	0.725 µM	1.22 µM	1.55 µM		0.683 µM	0.284 µM	0.14 µM	0.234 µM	0.288 µM	0.233 µM	0.342 µM	0.406 µM		
Nc1nc(N)c2ncn(-c3ccc(Cl)c(Cl)c3)c2n1	> 100 µM		87.7 µM			75.2 µM	67.6 µM	> 100 µM	70.6 µM	49.2 µM									
C=C(CN(C)C)C(=O)c1ccc(C)cc1C	19.3 µM	11.6 µM	47.5 µM	9.74 µM	46.9 µM	> 100 µM	30 µM	13.5 µM	22.2 µM	20.2 µM									
Nc1ccc(OCC(O)N2C(=O)c3ccccc3C2=O)cc1 (stereo not drawn)	> 100 µM	> 100 µM	> 100 µM	> 100 µM	> 100 µM	> 100 µM		> 100 µM	> 100 µM	> 100 µM									
CCN=C=NCCCN(C)C	> 100 µM	> 100 µM	> 100 µM	> 100 µM	> 100 µM	> 100 µM	> 100 µM	> 100 µM	> 100 µM	> 100 µM									
CN1CCC(C(=O)NNc2ccccc2)CC1	> 68.9 µM	> 100 µM	> 86.1 µM		> 100 µM	> 100 µM	32.6 µM	> 63.3 µM	> 89.2 µM	98.5 µM									
N=C(N)c1ccc(-c2ccc(-c3cncc4ccccc34)s2)cc1F						4.49 µM	3.04 µM	3.76 µM		3.51 µM			1.74 µM		1.64 µM	1.6 µM	1.69 µM		
COc1ccc2[nH]c3c([N+](=O)[O-])ccc(Cl)c3c(=O)c2c1	29.3 µM	9.84 µM	73.6 µM	13.2 µM	> 95.4 µM	45.4 µM	34.2 µM	42.8 µM	> 56.6 µM	40.4 µM									
C=C(C)C(=O)OC1C(C(C)CCCO)=C(CO)CC2OC(=O)C(=C)C21 (stereo not drawn)	79.8 µM	> 100 µM	> 100 µM	49.4 µM	37.8 µM	91.9 µM	58.9 µM	28.8 µM	> 100 µM	17.8 µM									
OC(Cc1ccccc1)(Cc1ccccc1)c1ccccc1	33.5 µM	52.8 µM	36.1 µM	> 100 µM	44.4 µM	> 100 µM		52.2 µM	42.6 µM	27.1 µM									
C=C1CC23CCC4C(C)(C(=O)O)CCCC4(C)C2CCC1C3 (stereo not drawn)	> 100 µM		> 100 µM	> 100 µM	59.1 µM	91.6 µM	> 100 µM	> 100 µM	> 100 µM	> 100 µM									
COC1/C=C\OC2(C)Oc3c(C)c(O)c4c(O)c(c(/C=N\OCCCc5ccccc5)c(O)c4c3C2=O)NC(=O)/C(C)=C\C=C/C(C)C(O)C(C)C(O)C(C)C(OC(C)=O)C1C (stereo not drawn)	7.39 µM	5.38 µM	6.75 µM	15.4 µM	15.6 µM		7.3 µM	18 µM	8.47 µM	12 µM									
CC(C)(C)C1(c2ccc(C3(c4ccccc4)Oc4ccccc4S3)[nH]2)Oc2ccccc2S1 (stereo not drawn)	> 100 µM	> 100 µM	> 100 µM	> 100 µM	> 100 µM	> 100 µM	> 100 µM	> 100 µM	> 100 µM	> 100 µM									
O=[N+]([O-])c1ccc(/C=N\Nc2ccc([N+](=O)[O-])cn2)cc1	> 100 µM	> 100 µM	> 100 µM	> 100 µM	> 100 µM	> 100 µM	82.8 µM	> 100 µM	> 100 µM	> 100 µM									
C[C@H](C(=O)N[C@@H](Cc1ccc(-c2ccccc2)cc1)C(=O)NC1CC(C)(C)N(C)C(C)(C)C1)c1ccc(-c2ccccc2)c(F)c1	3.05 µM				2.43 µM		3.03 µM		3.32 µM		1.62 µM			1.06 µM		1.56 µM		1.75 µM	
O=S(=O)(O)c1cc(N=Nc2cc(S(=O)(=O)O)c3ccccc3c2O)ccc1/C=C/c1ccc(N=Nc2cc(S(=O)(=O)O)c3ccccc3c2O)cc1S(=O)(=O)O	> 755 µM	41.2 µM and 104 µM	> 1000 µM	> 67.1 µM and 78.1 µM	> 881 µM	> 311 µM	> 667 µM	> 1000 µM	220 µM	> 494 µM		43.4 µM							
CC(C)=CCc1c(O)ccc2c1OC1c3ccc(O)c(CC=C(C)C)c3OCC21 (stereo not drawn)		31.4 µM	23.9 µM	25.3 µM	16.1 µM	17.1 µM	23.9 µM	22.5 µM		33.6 µM									
C[N+]1(C)CCOC(O)(c2ccccc2)C1 (stereo not drawn)	> 100 µM	> 100 µM	> 100 µM	> 100 µM	> 100 µM	> 100 µM	> 100 µM	> 100 µM	> 100 µM	> 100 µM									
C=C(C)C1CC2=C(O1)C(=O)c1ccccc1C2=O (stereo not drawn)		15 µM	35.2 µM	42.1 µM	33.8 µM	44.5 µM	33.7 µM	48.4 µM	46.3 µM										
C=C(C)[C@@H]1CC[C@]2(C(=O)Nc3ccccn3)CC[C@]3(C)[C@H](CC[C@@H]4[C@@]5(C)CCCNC(C)(C)[C@@H]5CC[C@]43C)[C@@H]12	4.64 µM	4.28 µM		4.78 µM	3.3 µM			3.51 µM	5.45 µM	2.84 µM	2.08 µM	1.82 µM	1.44 µM	1.71 µM			1.75 µM	2.26 µM	1.45 µM
C=C1C(=O)CCC1C(=O)O (stereo not drawn)	> 100 µM	> 100 µM	> 100 µM	> 100 µM	> 100 µM	> 100 µM	> 100 µM	> 100 µM	> 100 µM	> 100 µM									
O=Nc1ccc(O)c2ncccc12	14.5 µM	> 41.6 µM	15 µM	> 100 µM	12.8 µM	99.8 µM	4.96 µM	18.2 µM	28.2 µM	25.6 µM									
C/C1=N\NC(=O)c2ccccc2C(=O)N/N=C(\C)c2cccc1n2.O=[N+]([O-])[O-].[Zn+2]	> 100 µM		> 100 µM	> 100 µM	> 100 µM	> 100 µM	> 100 µM	> 100 µM	> 100 µM	> 100 µM									
Nc1cc(S(=O)(=O)O)cc2cc(S(=O)(=O)O)c(N=Nc3ccc(-c4ccc(N=Nc5c(S(=O)(=O)O)cc6cc(S(=O)(=O)O)cc(N)c6c5O)cc4)cc3)c(O)c12		> 100 µM	> 100 µM	> 100 µM	> 100 µM	> 100 µM	> 100 µM	> 100 µM		> 100 µM									
